Data reported in publication PMC12067444, “Synthesis and Pharmacological Characterization of Novel Peripheral Cannabinoid-1 Receptor Blockers Based on a Tricyclic Scaffold” (Journal of Medicinal Chemistry, 2025).
pIC50, pKi: −log10 of the molar value. Read-outs that look alike come from different tables or passages of the source.

Legend:
[1] = biological target: hERG cardiac potassium channel (Homo sapiens, UniProt Q12809); assay: hERG automated patch clamp (SyncroPatch 384PE); type: cell-based; details: whole cell hERG currents
HepG2 cells = assay: Cell viability assay (CellTiter Glo); type: cell-based; details: 72 h; for pIC50: Homo sapiens
Protocol: Cell viability assay. To assess the cell viability, which indicates the toxicity of the novel compounds, a total of 3,000 HepG2 cells were seeded into a 384-well plate. The compounds were then dispensed onto the cell plate using a Tecan D300e digital dispenser. Following compound addition, 35 μL CellTiter Glo reagent was added to all wells of the assay plate, and the plate was mixed for 30 sec on an or bital shaker to lyse cells. Subsequently, the plate was incubated at room temperature for 10 minutes. The luminescence signal was measured using a 384-well plate reader (EnVision). The obtained data were analyzed using XL-fit software (ID Business Solutions Ltd., Software version: XL fit 5. 5. 0. 5). The percentage of inhibition was calculated using the […]
Inhibition (%) = (1-Sample / ZPE) ×100
Sample represents the test compound's luminesc e nce signal, and ZPE represents the luminescence signal f r om the zer o-percent enzyme control.

human CB2R = biological target: T1, human CB2R (Homo sapiens, UniProt P34972); assay: Radioligand competition displacement binding, [3H]CP-55,940, membranes with human CB2R; details: [3H]CP-55,940 displacement, read-out: CB2R hKi
T1 construct: purchased PerkinElmer; Charles River RBXCB2M400UA; A618
Protocol: (§1) BNS compounds’ binding to CB1R and CB2R was assessed in competition displacement assays using [^3H]CP-55,940 as the radioligand and crude membranes from mouse brain or human cells overexpressing the CB1R or CB2R. All data were in triplicates with Ki values determined from three independent experiments. See SI for a detailed procedure.
Supplementary Experimental Methods […]
CB1R and CB2R binding. Binding to the CB1R/CB2R was asse ss ed using competition displacement as says with [ 3H] CP -55,940 as the radioligand. Purified membranes from the mouse brain were utilized for CB1R assessment (as described above). Purified […]
membranes from cells overexpressing human CB2R ( Char les River CAT # A618) w e r e employed for CB2R evaluation. […]
(§2) Radioligand binding assays were performed to asse ss the binding affinity of the different compounds to hCB1R (RBHCB1M4 00UA; Per kinElmer) or hCB 2R
(§3) (RBXCB2 M400UA; PerkinElmer). Competition displacement as says w ere employed, […]
(§4) utilizing [3H] C P -55,940 as the radioligand and crude membranes from humans for CB1 R or CB2 R. T he compounds were tested at various concentrations (eight points with a five-fold serial dilution starting at two m M) , and their ability to displace [3H] CP - 55, 940 was evaluated. Upon completion of the binding assays, the reaction mixture was filtered through GF/C plates, followed by four washes with cold wash buffer. After drying for one hour, 50 μL of Perkin Elmer Microscint 20 cocktail was added to the filter plate wells, and the bound [3H] C P -55,940 radioligand was measured using a β counter. All data points were duplicated, and Ki values were determined from two independent experiments using GraphPad Prism 7.02 analysis software, extracted through nonlinear regression analysis. […]
MgCl 2. The tissue was homogenized using a glass -Teflon and Hei-T ORQUE 200 homogenizer (Heidolph; Cat#17- 012- 002- 25 -1) set to 132 rpm. The resulting suspen sion underwent centrifugation at 48,000 × g for 20 min at four °C, and the supernatant was discarded. The pellet obtained was homogenized again and subjected to a second centrifugation under the same conditions. Subsequently, the resulting pellet […]
mM EGTA, 9 mM MgCl 2, and 150 mM NaCl, followed by homogenization. The protein concentration of the suspension was determined using the BCA assay, and the suspen sion was diluted to a final concentration of 2 mg/mL in assay buffer. The prepared suspension was aliquoted on ice and stored at - 80 °C for further use.

human CB1R = biological target: T2, human CB1R (Homo sapiens, UniProt P21554); assay: Radioligand competition displacement binding, [3H]CP-55,940, membranes with human CB1R
T2 construct: purchased PerkinElmer RBHCB1M400UA
Protocol: as §1, with “procedure. […]” for “procedure.”
as §2, §3, §4

[2] = read-out: cell viability Absolute IC50
[3] = read-out: cell viability relative IC50
[4] = human CB1R, read-out: CB1R hIC50

T1 sequence (P34972 whole entry): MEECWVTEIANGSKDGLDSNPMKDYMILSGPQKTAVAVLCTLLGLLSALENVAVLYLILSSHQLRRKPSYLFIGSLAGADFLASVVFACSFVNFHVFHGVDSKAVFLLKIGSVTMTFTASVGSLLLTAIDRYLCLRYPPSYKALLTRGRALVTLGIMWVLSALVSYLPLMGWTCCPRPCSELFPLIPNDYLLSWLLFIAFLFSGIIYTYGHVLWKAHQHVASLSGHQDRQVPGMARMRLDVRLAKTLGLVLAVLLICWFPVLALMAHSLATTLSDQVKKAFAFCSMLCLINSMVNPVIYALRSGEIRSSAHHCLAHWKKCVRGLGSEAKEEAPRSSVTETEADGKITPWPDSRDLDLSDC
T2 sequence (P21554 whole entry): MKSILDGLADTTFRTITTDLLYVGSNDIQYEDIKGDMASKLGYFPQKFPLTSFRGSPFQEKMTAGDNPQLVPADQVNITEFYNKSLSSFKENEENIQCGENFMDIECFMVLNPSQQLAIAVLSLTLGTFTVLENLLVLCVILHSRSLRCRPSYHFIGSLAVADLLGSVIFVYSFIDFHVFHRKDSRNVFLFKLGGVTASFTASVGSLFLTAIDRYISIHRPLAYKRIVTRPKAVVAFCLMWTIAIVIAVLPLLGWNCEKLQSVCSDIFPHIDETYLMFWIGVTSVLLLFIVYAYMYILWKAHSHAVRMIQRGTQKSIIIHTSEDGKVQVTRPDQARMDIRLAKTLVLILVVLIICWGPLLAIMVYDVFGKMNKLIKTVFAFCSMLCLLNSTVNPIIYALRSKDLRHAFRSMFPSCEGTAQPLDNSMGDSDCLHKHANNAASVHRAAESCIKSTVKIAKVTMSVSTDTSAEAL
hERG cardiac potassium channel, sequence (Q12809 whole entry): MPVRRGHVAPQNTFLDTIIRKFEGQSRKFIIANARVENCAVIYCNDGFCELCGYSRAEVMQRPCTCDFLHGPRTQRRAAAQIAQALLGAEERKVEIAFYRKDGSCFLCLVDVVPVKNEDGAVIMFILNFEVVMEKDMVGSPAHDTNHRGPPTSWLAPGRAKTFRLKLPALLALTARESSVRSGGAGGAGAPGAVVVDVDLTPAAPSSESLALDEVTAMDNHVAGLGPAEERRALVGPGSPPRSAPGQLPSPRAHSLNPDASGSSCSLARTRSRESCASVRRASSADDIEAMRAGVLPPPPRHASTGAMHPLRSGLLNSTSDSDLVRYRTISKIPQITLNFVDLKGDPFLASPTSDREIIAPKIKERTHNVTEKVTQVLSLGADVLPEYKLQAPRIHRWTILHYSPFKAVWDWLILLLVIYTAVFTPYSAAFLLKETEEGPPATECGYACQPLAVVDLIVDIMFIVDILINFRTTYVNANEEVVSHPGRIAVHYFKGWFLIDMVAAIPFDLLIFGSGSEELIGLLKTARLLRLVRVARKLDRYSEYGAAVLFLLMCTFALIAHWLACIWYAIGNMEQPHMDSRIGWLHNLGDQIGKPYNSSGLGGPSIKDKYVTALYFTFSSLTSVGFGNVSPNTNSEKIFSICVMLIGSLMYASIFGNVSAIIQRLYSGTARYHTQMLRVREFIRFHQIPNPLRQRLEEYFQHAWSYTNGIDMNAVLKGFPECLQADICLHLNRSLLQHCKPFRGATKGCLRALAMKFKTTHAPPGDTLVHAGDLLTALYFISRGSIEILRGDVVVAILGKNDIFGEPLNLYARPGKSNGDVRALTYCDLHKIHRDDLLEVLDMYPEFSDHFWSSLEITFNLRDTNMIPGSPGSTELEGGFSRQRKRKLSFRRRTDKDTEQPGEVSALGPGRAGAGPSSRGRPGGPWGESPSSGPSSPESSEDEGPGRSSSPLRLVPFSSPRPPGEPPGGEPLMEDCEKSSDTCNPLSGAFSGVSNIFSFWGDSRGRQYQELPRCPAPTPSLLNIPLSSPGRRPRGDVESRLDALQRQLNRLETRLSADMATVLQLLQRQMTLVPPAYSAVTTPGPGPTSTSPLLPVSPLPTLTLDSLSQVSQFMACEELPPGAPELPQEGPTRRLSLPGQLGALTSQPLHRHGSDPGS

Row | pIC50 (HepG2 cells; [2]) | pIC50 (HepG2 cells; [3]) | pKi (human CB2R) | pKi (human CB1R; [3H]CP-55,940 displacement, human CB1R membranes, read-out: CB1R hKi) | pIC50 (human CB1R; [4]) | Structure (SMILES) | pIC50 [1] | Bottom (%) of cell viability inhibition curve (HepG2 cells) [%] | Slope of cell viability inhibition curve (HepG2 cells) | Top (%) of cell viability inhibition curve (HepG2 cells) [%] | pIC50 (human CB1R)
1 | 4.25 | 4.33 | 5.20 | 8.04 | 8.00 | CS(=O)(=O)N1CCC(C(=O)NC2CCCOc3c2nn(-c2ccccc2Cl)c3-c2ccc(Cl)cc2)CC1 (stereo not shown) [BNS815, N-[2-(2-Chlorophenyl)-3-(4-chlorophenyl)-5,6,7,8-tetrahydrooxepino[3,2-c]pyrazol-8-yl]-1-methylsulfonyl-piperidine-4-carboxamide] | 5.31 | -9.25 | 3.71 | 80.41 | 
2 | < 4.00 | 4.75 | 5.78 |  | 8.82 | Cc1ccc(S(=O)(=O)NC2CCCOc3c2nn(-c2ccccc2Cl)c3-c2ccc(Cl)cc2)cc1 (stereo not shown) [BNS807] | 4.74 | -12.17 | 1.52 | 21.39 | 

Row | Structure (SMILES) | pIC50 (HepG2 cells; [2]) | pIC50 (HepG2 cells; [3]) | pKi (human CB2R) | pKi (human CB1R; [3H]CP-55,940 displacement, human CB1R membranes, read-out: CB1R hKi) | pIC50 (human CB1R; [4]) | pIC50 [1] | Bottom (%) of cell viability inhibition curve (HepG2 cells) [%] | Slope of cell viability inhibition curve (HepG2 cells) | Top (%) of cell viability inhibition curve (HepG2 cells) [%] | pIC50 (human CB1R)
3 | O=S(=O)(NC1CCCOc2c1nn(-c1ccccc1Cl)c2-c1ccc(Cl)cc1)c1ccc(Cl)cc1 (stereo not shown) [BNS808, 4-chloro-N-[2-(2-chlorophenyl)-3-(4-chlorophenyl)-5,6,7,8-tetrahydrooxepino[3,2-c]pyrazol-8-yl]benzenesulfonamide] | 4.58 | 4.77 | 5.71 |  |  | 5.27 | -8.11 | 3.39 | 62.98 | 9.10
